{"source": "ChEMBL document CHEMBL1142910", "about": "“Enzymatic and cellular study of a serotonin N-acetyltransferase phosphopantetheine-based prodrug” (2007)", "key": {"[1]": {"molecular_target": "Serotonin N-acetyltransferase (Rattus norvegicus) (UniProt Q64666)", "sequence (Q64666 whole entry)": "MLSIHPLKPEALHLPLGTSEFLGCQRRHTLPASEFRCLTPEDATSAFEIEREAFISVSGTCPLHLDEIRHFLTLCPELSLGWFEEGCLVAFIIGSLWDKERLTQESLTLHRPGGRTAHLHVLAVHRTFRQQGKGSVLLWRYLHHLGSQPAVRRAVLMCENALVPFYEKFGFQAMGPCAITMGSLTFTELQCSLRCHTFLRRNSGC", "test": "Inhibition of norepinephrine-stimulated AANAT activity assessed per 10^5 cells in rat pinealocytes at 10 uM", "format": "cell-based"}, "[2]": {"test": "Inhibition of norepinephrine-stimulated melatonin production assessed per 10^5 cells in rat pinealocytes at 50 uM by radioimmunoassay", "format": "functional"}, "[3]": {"molecular_target": "Serotonin N-acetyltransferase (Rattus norvegicus) (UniProt Q64666)", "test": "Activity of AANAT assessed as conversion of bis-pivaloyloxymethylene-tryptamine-phosphopantetheine to tryptamine phosphopantetheine in rat pinealocytes after 60 mins", "format": "cell-based"}, "[4]": {"test": "Inhibition of norepinephrine-stimulated melatonin production assessed per 10^5 cells in rat pinealocytes at 10 uM by radioimmunoassay", "format": "functional"}, "[5]": {"molecular_target": "Serotonin N-acetyltransferase (Rattus norvegicus) (UniProt Q64666)", "test": "Activity of AANAT assessed as conversion of bis-pivaloyloxymethylene-tryptamine-phosphopantetheine to tryptamine phosphopantetheine in rat pinealocytes at […]", "format": "cell-based", "conditions": "TDE = time-dependent effect"}, "[6]": {"molecular_target": "Serotonin N-acetyltransferase (Rattus norvegicus) (UniProt Q64666)", "test": "Inhibition of norepinephrine-stimulated AANAT activity assessed per 10^5 cells in rat pinealocytes at 50 uM", "format": "cell-based"}}}
{"smiles": "CC(C)(C)C(=O)OCOP(=O)(OCOC(=O)C(C)(C)C)OCC(C)(C)[C@@H](O)C(=O)NCCC(=O)NCCSCC(=O)NCCc1c[nH]c2ccccc12", "values": [{"measurement": "Activity", "setting": "[1]", "value": 2.2, "unit": "nmol/h"}, {"measurement": "Inhibition", "setting": "[2]", "value": 5.7, "unit": "pmol"}, {"measurement": "Activity", "setting": "[3]", "value": 40, "unit": "%"}, {"measurement": "Inhibition", "setting": "[4]", "value": 9, "unit": "pmol"}, {"measurement": "Activity", "setting": "[5]", "value": "tde"}, {"measurement": "Activity", "setting": "[6]", "value": 1.6, "unit": "nmol/h"}]}
